The target in assay [1] is His-tagged recombinant human Gal-3 (hGal-3) (Homo sapiens, UniProt P17931). Put plainly: Gal-3 HTRF assay (His-tagged hGal-3 / B-ASF). To be noted: 15 nM hGal-3, 15 nM B-ASF. In kind it is binding. The procedure:
ASSAY BUFFER Composition: 25 mM HEPES, 100 mM NaCl, 0.005% Tween 20, 0.05% BSA prepared in sterile water (all reagents from Sigma).
• Positive Control: 100% DMSO (1 μL)+His-tagged hGal-3 (20 μL)+B-ASF (20 μL)+Anti-His Terbium Antibody (5 μL)+Strep d2 Antibody (5 μL). • Negative Control: 100% DMSO (1 μL)+His-tagged hGal-3 (20 μL)+Anti His Terbium Antibody (5 μL)+Strep d2 Aantibody (5 μL). Stocks Preparation:
PROTOCOL: The Gal-3 assays were performed in 384 white Opti plates in three replicates at room temperature with gentle shaking at 250-300 rpmFrom the original stocks, […] working stock concentrations of His-tagged recombinant human Gal-3 (hGal-3) and that of B-ASF were prepared. From the working stock, 20 μL of hGal-3 (15 nM) and 20 μL B-ASF (15 nM) were added to the plates. In Negative Control, only hGal-3 was added. A concentration range of 50× working stocks were prepared for the compounds in 100% DMSO. Aliquots of luL of the compounds were added to the wells and pre-incubated with 20 μL hGal-3 per well for 30 minutes Then 20 μL B-ASF wereadded and incubated for another 1 hour. To detect the signal, 5 μL (final conc. of 1.0 nM) terbium labelled Anti-His antibody was added and incubated for 30 min followed by adding 5 μL (final conc. of 20 nM) Streptavidin d2 and incubation for another 1 hour. The assay signal was detected using HTRF screen protocol (Excitation wavelength=340 nm, emission wavelength=615 nm/665 nm) on Envision 2104 Multilabel Reader. Data analysed using Toolset and Curve Master. Results are reported in the experimental section (IC50 in μM).

Assay [2] addresses T1, hCRBN (NanoLuc-CRBN fusion construct in HEK-293 cells) (Homo sapiens, UniProt Q96SW2).
T1 construct: expressed in transfected cells; host or cells: HEK-293
The experiment in a line: CRBN BRET Target Engagement. The assay is classed as cell-based. The note with it: NanoLuc-CRBN transfected HEK-293 cells, BRET with CRBN Probe. Here is the method:
CRBN BRET Target Engagement (hCRBN IC50 (μM))
NanoLuc-CRBN fusion construct was transfected in HEK-293 cells using FuGENE HD (Promega) according to the manufacturer's protocol. In brief, Nluc-CRBN was diluted into Transfection Carrier DNA (Promega) 1:10 (mass/mass), to which FuGENE HD was 1:3 (μg DNA:μL FuGENE HD). One part (vol) of DNA:FuGENE HD complexes were combined with 20 parts (vol) of HEK-293 cells suspended at a density of […]. Cells were incubated for ˜20 hr at 37° C./5% CO2. Following transfection, cells were washed and resuspended at 200,000 cells/mL in OptiMEM without phenol red (Gibco).
For BRET measurements, cells were seeded in a 384-well nonbinding surface plate (Corning) plate for a final count of 10,000 cells/well. Compounds were dissolved at 10 mM in dimethylsulfoxide (DMSO) and evaluated at eleven concentrations using a high concentration of […]. CRBN Probe was used for equilibrium measurements, employing a final concentration of approximately EC50-80. For live-cell measurements, 20 nM of CRBN Probe was added. For the live-cell assay conditions, the plates were incubated for 2 hours at 37° C./5% CO2. NanoBRET NanoGlo Substrate and Extracellular Nanoluc Inhibitor (Promega) were added according to manufacturer's guidelines. For lytic cell measurements, digitonin was added to the cells to a final concentration of 50 μg/mL and 20 nM of CRBN Probe was added. To measure NanoBRET in permeabilized cells, extracellular Nluc inhibitor was omitted during the detection step. For all BRET experiments, the Envision 2015 (Perkin Elmer) equipped with a BRET2 Enh mirror, BRET 647 nM/75 nM Bandwidth and BC703 460 nM/80 nM Bandwidth filters was used for readouts. Each read was integrated for 0.5 s.
To determine compound potency (IC50), BRET ratios for each dilution series was first normalized to a % Inhibition value via Equation 1, where “S” represents Sample BRET, “B” represents Background BRET, and “T” represents Total BRET. In this equation, the background control (B) consists of NanoLuc-CRBN expressing cells and no CRBN Probe. The total BRET Ratio (T) consists of NanoLuc-CRBN expressing cells, CRBN Probe, and an amount of DMSO at a concentration equivalent to that added when testing compounds.
Following normalization, the percent inhibition values are plotted as a function of compound concentration and fit to Equation 2. […]
On the technique in general: BRET reads energy transfer from a luciferase to a nearby fluorophore.

For assay [3], the target named is T2, Gal3 (Human Galectin-3) in THP-1 cells (Homo sapiens, UniProt P17931).
T2 construct: host or cells: THP-1
Put plainly: ELISA Gal3 Degradation Assay in THP-1 Cells. In kind it is cell-based. The note with it: 48 hours, culture media Gal3 by ELISA. The procedure:
[formula] ELISA Gal3 Degradation Assay in THP-1 Cells
THP-1 cells (ATCC, Cat #TIB-202), a human monocyte cell line derived from leukemia were plated at 2E6 cells/mL in 200 uL/well of RPMI 1640 (ThermoFisher, Cat #11835) in 96-well plates. Cells were treated with DMSO as a control and various concentrations of compounds for 48 hours. After the treatment, the culture media were collected. The PBS washed cell pellets were lysed in Lysis Buffer (Cell Signaling, Cat #9803) supplemented with 1XProtease Inhibitor Cocktail (Cell Signaling, Cat #5872). Gal3 levels in culture media and cell lysates were quantified by ELISA assays (Human Galectin-3 DuoSet ELISA kit, R&D Systems, Cat #DY1154) according to manufacturer's instructions. The cell culture media were also used for the assessment of cellular toxicity (LDH Assay kit, R&D Systems, DY994). The IC50 (degradation concentration at 50%) values were calculated based on the cellular Gal3 protein levels using DMSO as the control.
(In general: ELISA stands for enzyme-linked immunosorbent assay.)

The mark [4] stands for this setting: test 1, read-out: Supernatant (IC50) test 1.
The mark [5] stands for this setting: test 2, read-out: Supernatant (IC50) test 2.

The term IC50 denotes the concentration that inhibits the measured activity by half.

Where two headings read alike, the source gives them in different places. Some results are limits rather than exact numbers.

Chain of His-tagged recombinant human Gal-3 (hGal-3) (P17931 whole entry): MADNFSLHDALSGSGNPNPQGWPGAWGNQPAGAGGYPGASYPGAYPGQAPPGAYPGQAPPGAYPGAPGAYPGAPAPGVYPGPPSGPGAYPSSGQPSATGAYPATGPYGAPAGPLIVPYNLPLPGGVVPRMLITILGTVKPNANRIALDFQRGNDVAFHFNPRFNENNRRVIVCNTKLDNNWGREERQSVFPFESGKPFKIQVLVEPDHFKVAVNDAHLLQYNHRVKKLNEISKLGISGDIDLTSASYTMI
T2 sequence (P17931 whole entry): as above
T1 sequence (Q96SW2 whole entry, the tested form may be a part): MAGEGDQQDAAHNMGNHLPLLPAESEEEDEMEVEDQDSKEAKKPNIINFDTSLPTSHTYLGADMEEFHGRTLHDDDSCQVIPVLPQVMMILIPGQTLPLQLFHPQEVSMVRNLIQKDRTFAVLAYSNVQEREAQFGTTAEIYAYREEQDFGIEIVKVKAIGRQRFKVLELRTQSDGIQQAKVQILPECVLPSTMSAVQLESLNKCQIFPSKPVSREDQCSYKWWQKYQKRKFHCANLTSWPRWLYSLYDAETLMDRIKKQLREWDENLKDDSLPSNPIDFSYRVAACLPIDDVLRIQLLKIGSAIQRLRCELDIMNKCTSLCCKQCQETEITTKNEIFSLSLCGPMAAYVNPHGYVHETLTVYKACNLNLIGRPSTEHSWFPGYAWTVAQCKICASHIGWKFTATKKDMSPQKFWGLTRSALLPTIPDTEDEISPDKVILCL

Turning to `Cc1nc([C@@H]2O[C@H](CO)[C@H](O)[C@H](n3cc(-c4cc(F)c(Cl)c(F)c4)nn3)[C@H]2OCC(=O)N[C@H]2C[C@H](Oc3ccc(C(=O)Nc4ccc5c(c4)CN(C4CCC(=O)NC4=O)C5=O)cc3)C2)n(-c2cc(Cl)ccc2C(F)(F)F)n1` (stereo partly shown) [Example 15], the 50% inhibitory concentration (IC50) is 420 nM in assay [1] and 380 nM in assay [2].
The like results for `Cc1nc([C@@H]2O[C@H](CO)[C@H](O)[C@H](n3cc(-c4cc(F)c(Cl)c(F)c4)nn3)[C@H]2OCC(=O)N(CCl)CCCOc2ccc(C(=O)Nc3ccc4c(c3)CN(C3CCC(=O)NC3=O)C4=O)cc2)n(-c2cc(Cl)ccc2C(F)(F)F)n1` (stereo partly shown) [Example 24] were, in that order, 212 nM and 2160 nM.
Turning to `Cc1nc([C@@H]2O[C@H](CO)[C@H](O)[C@H](n3cc(-c4cc(F)c(Cl)c(F)c4)nn3)[C@H]2OCC(=O)NCc2ccc(C(=O)Nc3ccc4c(c3)CN(C3CCC(=O)NC3=O)C4=O)cc2)n(-c2cc(Cl)ccc2C(F)(F)F)n1` (stereo partly drawn) [Example 2, 4-((2-(((2S,3R,4S,5R,6R)-2-(1-(5-Chloro-2-(trifluoromethyl)phenyl)-3-methyl-1H-1,2,4-triazol-5-yl)-4-(4-(4-chloro-3,5-difluorophenyl)-1H-1,2,3-triazol-1-yl)-5-hydroxy-6-(hydroxymethyl)tetrahydro-2H-pyran-3-yl)oxy)acetamido)methyl)-N-(2-(2,6-dioxopiperidin-3-yl)-1-oxoisoindolin-5-yl)benzamide], the values for the IC50 in assay [1] and in assay [2] were 109 nM and 269 nM, respectively.
The like results for `Cc1nc([C@@H]2O[C@H](CO)[C@H](O)[C@H](n3cc(-c4cc(F)c(Cl)c(F)c4)nn3)[C@H]2OCC(=O)N2CC3(CC(COc4ccc(C(=O)Nc5ccc6c(c5)CN(C5CCC(=O)NC5=O)C6=O)cc4)C3)C2)n(-c2cc(Cl)ccc2C(F)(F)F)n1` (stereo partly shown) [Example 29] were, in that order, 160 nM and 350 nM.
For `Cc1nc([C@@H]2O[C@H](CO)[C@H](O)[C@H](n3cc(-c4cc(F)c(Cl)c(F)c4)nn3)[C@H]2OCC(=O)NCCOCCOCCNC(=O)c2ccc3c(c2)C(=O)N(C2CCC(=O)NC2=O)C3=O)n(-c2cc(Cl)ccc2C(F)(F)F)n1` (stereo partly shown) [Example 14], in that order: 25 nM and 1500 nM.
For `Cc1nc([C@@H]2O[C@H](CO)[C@H](O)[C@H](n3cc(-c4cc(F)c(Cl)c(F)c4)nn3)[C@H]2OCC(=O)NCCOCC(=O)Nc2ccc3c(c2)CN(C2CCC(=O)NC2=O)C3=O)n(-c2cc(Cl)ccc2C(F)(F)F)n1` (stereo partly drawn) [Example 1, 2-(((2S,3R,4S,5R,6R)-2-(1-(5-Chloro-2-(trifluoromethyl)phenyl)-3-methyl-1H-1,2,4-triazol-5-yl)-4-(4-(4-chloro-3,5-difluorophenyl)-1H-1,2,3-triazol-1-yl)-5-hydroxy-6-(hydroxymethyl)tetrahydro-2H-pyran-3-yl)oxy)-N-(2-(2-((2-(2,6-dioxopiperidin-3-yl)-1-oxoisoindolin-5-yl)amino)-2-oxoethoxy)ethyl)acetamide], in that order: 82 nM and 780 nM.
As for `Cc1nc([C@@H]2O[C@H](CO)[C@H](O)[C@H](n3cc(-c4cc(F)c(Cl)c(F)c4)nn3)[C@H]2OCC(=O)N2CC(COc3ccc(C(=O)Nc4ccc5c(c4)CN(C4CCC(=O)NC4=O)C5=O)cc3)C2)n(-c2cc(Cl)ccc2C(F)(F)F)n1` (stereo partly drawn) [Example 7, 4-((1-(2-(((2S,3R,4S,5R,6R)-2-(1-(5-Chloro-2-(trifluoromethyl)phenyl)-3-methyl-1H-1,2,4-triazol-5-yl)-4-(4-(4-chloro-3,5-difluorophenyl)-1H-1,2,3-triazol-1-yl)-5-hydroxy-6-(hydroxymethyl)tetrahydro-2H-pyran-3-yl)oxy)acetyl)azetidin-3-yl)methoxy)-N-(2-(2,6-dioxopiperidin-3-yl)-1-oxoisoindolin-5-yl)benzamide], the IC50 in assay [1] was 56 nM; in assay [2], 601 nM.
Turning to `Cc1nc([C@@H]2O[C@H](CO)[C@H](O)[C@H](n3cc(-c4cc(F)c(Cl)c(F)c4)nn3)[C@H]2OCC(=O)N2Cc3ccc(C(=O)Nc4ccc5c(c4)CN(C4CCC(=O)NC4=O)C5=O)cc3C2)n(-c2cc(Cl)ccc2C(F)(F)F)n1` (stereo partly shown) [Example 19], the IC50 was found to be 51 nM in assay [1] and 17 nM in assay [2].
In the case of `Cc1nc([C@@H]2O[C@H](CO)[C@H](O)[C@H](n3cc(-c4cc(F)c(Cl)c(F)c4)nn3)[C@H]2OCC(=O)N[C@H]2C[C@@H](Oc3ccc(C(=O)N[C@H](C(=O)N4C[C@H](O)C[C@H]4C(=O)NCc4ccc(-c5scnc5C)cc4)C(C)(C)C)nc3)C2)n(-c2cc(Cl)ccc2C(F)(F)F)n1` [Example 33], the IC50 in assay [3] (setting [4]) is > 30000 nM; in assay [3] (setting [5]), > 30000 nM; in assay [1], 1010 nM.
Take `Cc1nc([C@@H]2O[C@H](CO)[C@H](O)[C@H](n3cc(-c4cc(F)c(Cl)c(F)c4)nn3)[C@H]2OCC(=O)NCCOCC(=O)NCc2ccc(S(=O)(=O)Nc3ccc(C)c4c(C#N)c[nH]c34)cc2)n(-c2cc(Cl)ccc2C(F)(F)F)n1` [Example 22]: the IC50 in assay [3] (setting [4]) came to 3400 nM; in assay [3] (setting [5]), 3340 nM; in assay [1], 294 nM.
The like results for `Cc1nc([C@@H]2O[C@H](CO)[C@H](O)[C@H](n3cc(-c4cc(F)c(Cl)c(F)c4)nn3)[C@H]2OCC(=O)NCCOCC(=O)N[C@H](C(=O)N2C[C@H](O)C[C@H]2C(=O)NCc2ccc(-c3scnc3C)cc2)C(C)(C)C)n(-c2cc(Cl)ccc2C(F)(F)F)n1` [Example 20] were, in that order, 51 nM, 42 nM and 50 nM.

For the origin of these results see patent US12291522B2, “Galectin-3 inhibitors” (BRISTOL-MYERS SQUIBB COMPANY, priority 2020, dated 2025).
